# Test results from patent publication US11504415B2, “Treatment of heart failure with preserved ejection fraction” (Stichting VUmc, priority 2016, dated 2022).
# Entries after “also recorded” stand apart in the source; their conditions may differ.
# How the values were obtained:
# Format in all cases: cell-based, human
# AS cardiomyocytes = experiment: Force measurements (Fpassive) in single demembranated aortic stenosis (AS) cardiomyocytes; conditions: for Fpassive (Fpassive-SL curve) after alkaline phosphatase vs baseline: AP 2000 U/mL, 40 minutes at 20° C.; for Fpassive (Fpassive-SL curve) after α-B crystallin vs AS baseline: single AS cardiomyocytes
# Protocol: (§1) Force measurements were performed on single demembranated cardiomyocytes (n ranged from 9 to 15 for each group and experimental protocol) as described previously.^4, 5 Cardiomyocytes were isolated from donor, AS, and DCM hearts. Briefly, samples were thawed in relaxing solution (in mmol/L: free Mg, 1; KCl, 100; EGTA, 2; Mg-ATP, 4; imidazole, 10; pH 7.0), mechanically disrupted and incubated for 5 minutes in relaxing solution supplemented with 0.5% TRITON® X-100. The cell suspension was washed 5 times in relaxing solution. Single cardiomyocytes were selected under an inverted microscope and attached with silicone adhesive between a force transducer and a piezoelectric motor. Cardiomyocyte Fpassive was measured in relaxing buffer at room temperature within a sarcomere length (SL) range between 1.8 and 2.4 μm. Force values were normalized to cardiomyocyte cross-sectional area calculated from the diameter of the cells, assuming a cylindrical shape. As a test of cell viability, each cardiomyocyte was also transferred from relaxing to maximally activating solution (pCa4.5), at which isometric force developed. Once a steady state force was reached, the cell was shortened within 1 ms to 80% of its original length to determine baseline force. Only cells developing active forces >20 kN/m^2 were included in the analysis. Thereafter, cardiomyocytes were incubated in relaxing solution supplemented with alkaline phosphatases (AP) (2000 U/mL; New England Biolabs), 6 mmol/L dithiothreitol (MP Biochemicals) for 40 minutes at 20° C. and Fpassive was measured again at SL 1.8-2.4 μm. Subsequently, cardiomyocytes were stretched to ˜2.6 μm SL, incubated in relaxing buffer with pH 6.6, and held in the stretched state for 15 minutes (prestretch). Thereafter, cardiomyocytes were returned to slack length and stabilized for 5 minutes before recording the Fpassive with an identical stretch protocol from SL 1.8-2.4 μm in the low pH buffer. Finally, the pH 6.6 buffer was supplemented with recombinant human α-B crystallin at 0.1 mg/ml and Fpassive was measured in the presence of α-B crystallin again at SL 1.8-2.4 μm.
# In a second set of experiments, single AS cardiomyocytes underwent either incubation at pH 6.6 alone or a prestretch in relaxing buffer with pH 6.6 to ˜2.6 μm SL, followed by the same stretch protocol from SL 1.8-2.4 μm.
# Finally, in a third set of experiments, Fpassive was measured in single AS cardiomyocytes from SL 1.8-2.4 μm before and after incubation with α-B crystallin, before and after incubation with α-B crystallin and a prestretch to ˜2.6 μm SL, and before and after incubation with α-B crystallin, a prestretch to ˜2.6 μm SL and incubation at pH 6.6.
# donor cardiomyocytes = experiment: Force measurements (Fpassive) in single demembranated donor cardiomyocytes; conditions: SL 1.8-2.4 μm; for Fpassive (Fpassive-SL curve) after alkaline phosphatase vs baseline: AP 2000 U/mL, 40 minutes at 20° C.
# Protocol: as §1, with “Thereafter, cardiomyocytes were returned to slack length and stabilized for 5 minutes before recording the Fpassive with an identical stretch protocol from SL 1.8-2.4 μm in the low pH buffer.” left out
# DCM cardiomyocytes = experiment: Force measurements (Fpassive) in single demembranated dilated cardiomyopathy (DCM) cardiomyocytes; conditions: SL 1.8-2.4 μm; for Fpassive (Fpassive-SL curve) after alkaline phosphatase vs baseline: AP 2000 U/mL, 40 minutes at 20° C.
# Protocol: as §1, with “Thereafter, cardiomyocytes were returned to slack length and stabilized for 5 minutes before recording the Fpassive with an identical stretch protocol from SL 1.8-2.4 μm in the low pH buffer.” left out
# [1] = after AP, prestretch to ~2.6 μm SL in pH 6.6, α-B crystallin 0.1 mg/ml
Molecule,"Fpassive (Fpassive-SL curve) after alkaline phosphatase vs baseline (AS cardiomyocytes; AS cardiomyocytes, SL 1.8-2.4 μm)","Fpassive (Fpassive-SL curve) after alkaline phosphatase vs baseline (AS cardiomyocytes; AS cardiomyocytes, SL 1.8-2.4 μm, listed as AP)",Fpassive (Fpassive-SL curve) after alkaline phosphatase vs baseline (donor cardiomyocytes),Fpassive (Fpassive-SL curve) after alkaline phosphatase vs baseline (donor cardiomyocytes; listed as AP),Fpassive (Fpassive-SL curve) after alkaline phosphatase vs baseline (DCM cardiomyocytes),Fpassive (Fpassive-SL curve) after alkaline phosphatase vs baseline (DCM cardiomyocytes; listed as AP),"Fpassive (Fpassive-SL curve) after α-B crystallin (AS cardiomyocytes; AS cardiomyocytes, after AP, prestretch to ~2.6 μm SL in pH 6.6, α-B crystallin 0.1 mg/ml, SL 1.8-2.4 μm)","Fpassive (Fpassive-SL curve) after α-B crystallin vs AS baseline (AS cardiomyocytes; α-B crystallin alone, no prior intervention (FIG. 6A), SL 1.8-2.4 μm)",Fpassive (Fpassive-SL curve) after α-B crystallin vs AS baseline (AS cardiomyocytes; α-B crystallin and prestretch to ~2.6 μm SL alone (FIG. 6B)),"Fpassive (Fpassive-SL curve) after α-B crystallin vs AS baseline (AS cardiomyocytes; α-B crystallin, prestretch to ~2.6 μm SL and pH 6.6 (FIG. 6C))",Fpassive (Fpassive-SL curve) after α-B crystallin (donor cardiomyocytes; [1]),Fpassive (Fpassive-SL curve) after α-B crystallin (DCM cardiomyocytes; [1])
alkaline phosphatase [reference compound],the Fpassive-SL curve failed to shift,no significant change in the Fpassive-SL curve; also recorded: not in AS or DCM cardiomyocytes,Fpassive significantly increased; also recorded: the Fpassive-SL curve shifted upward,shifts the diastolic Fpassive-SL relation upward in donor,the Fpassive-SL curve failed to shift,had no effect on the Fpassive-SL curve; also recorded: not in AS or DCM cardiomyocytes,–,–,–,–,–,–
"α-B crystallin: recombinant human α-B crystallin; small heat shock protein encoded by the CRYAB gene, SEQ ID NO:1 (protein, listed as Homo sapiens) MDIAIHHPWIRRPFFPFHSPSRLFDQFFGEHLLESDLFPTSTSLSPFYLRPPSFLRAPSWFDTGLSEMRLEKDRFSVNLDVKHFSPEELKVKVLGDVIEVHGKHEERQDEHGFISREFHRKYRIPADVDPLTITSSLSSDGVLTVNGPRKQVSGPERTIPITREEKPAVTAAPKK",–,–,–,–,–,–,lowered diastolic stiffness well below baseline values; also recorded: dropped Fpassive to a level significantly lower than baseline; also recorded: dropped to a position that was significantly lower than baseline and comparable to the baseline position of donor cardiomyocytes; also recorded: falls below the baseline diastolic Fpassive-SL relation in AS and DCM cardiomyocytes,shifted the diastolic Fpassive-SL relation downward; also recorded: decreased Fpassive significantly; also recorded: shifted the Fpassive-SL curve significantly downward compared to baseline,decreased Fpassive significantly as well; also recorded: yielded a similar result,decreased Fpassive significantly as well; also recorded: yielded a similar result,Fpassive normalized again to baseline; also recorded: the curve returned to an intermediate position between baseline and AP; also recorded: coincides with the baseline diastolic Fpassive-SL relation of donor cardiomyocytes,lowered diastolic stiffness well below baseline values; also recorded: Fpassive dropped to a level significantly below baseline; also recorded: fell to a position that was significantly below baseline and comparable to the baseline position of donor cardiomyocytes; also recorded: falls below the baseline diastolic Fpassive-SL relation in AS and DCM cardiomyocytes
